Three molecules from patent publication US9572855B2, “Combination anti-estrogen receptor cancer therapy using MUC1 peptides and chemotherapeutics” (DANA-FARBER CANCER INSTITUTE, INC., priority 2013, dated 2017) can be followed below.

Data set [1] deals with MCF-7/MUC1-C cells. As to the kind of experiment: Cell death by trypan blue staining. It counts as cell-based, human. An excerpt: (§1) (FIG. 2B) Control MCF-7/vector (diamonds) and MCF-7/MUC1-C (triangles) cells were left untreated.
The subject of another data set is MUC1-negative 293T cells. As to the kind of experiment: Cell death by trypan blue staining. It counts as cell-based, human. The settings on record: GO-203 each day for 4 days, day 4 (FIG. 8). The text has this:
FIG. 8. 293T cells were left untreated or treated with GO-203 each day for 4 days.

Data set [2] concerns BT-474/CshRNA cells. The experiment in a line: Cell growth (viable cell number); Chou-Talalay drug combination. It counts as cell-based, human. The note with it: BT-474 and BT-474/CshRNA cells; 5 μM tamoxifen on days 0 and 2; vs untreated (FIG. 1B).
Data set [3] relates to BT-474/MUC1shRNA cells. The settings on record: 5 μM tamoxifen on days 0 and 2 (FIG. 1B). An excerpt: (§2) The multiple effect-level isobologram analyses are shown for the ED50 (X), ED75 (+) and ED90 (⊙) values.
Data set [4] concerns MCF-7/vector cells. As to the kind of experiment: Cell growth (cell number); Chou-Talalay drug combination. It counts as cell-based, human. The settings on record: MCF-7 and MCF-7/vector cells; 5 μM tamoxifen on days 0, 2 and 4 (FIG. 2B).
Source text: as §2

The subject of data set [5] is MCF-7/MUC1-C cells. The experiment in a line: Cell growth (viable cell number); Chou-Talalay drug combination. It counts as cell-based, human. The settings on record: 5 μM tamoxifen on days 0, 2 and 4 (FIG. 2B). An excerpt: Lysates were immunoblotted with the indicated antibodies. […] Lysates were immunoblotted with the indicated antibodies.
(§3) (FIG. 6A) MCF-7/MUC1-C cells were infected with lentiviruses expressing the control shRNA (CshRNA) or the MUC1shRNA. Lysates from wild-type (WT) MCF-7 cells, MCF-7/MUC1-C/CshRNA and MCF-7/MUC1-C/MUC1shRNA cells were immunoblotted with the indicated antibodies. […] The results (mean±SD of three replicates) are expressed as viable cell number. […] The multiple effect-level isobologram analyses are shown for the ED50 (X), ED75 (+) and ED90 (⊙) values.

Data set [6] relates to MCF-7/MUC1-C/MUC1shRNA cells. As to the kind of experiment: Cell growth (viable cell number). It counts as cell-based, human. The settings on record: 5 μM tamoxifen days 0 and 2 (FIG. 6B).
Source text: as §3

The test system of data set [7] is BT-474/MUC1shRNA cells. As to the kind of experiment: Cell death by trypan blue staining. It counts as cell-based, human. The settings on record: 5 μM tamoxifen on days 0 and 2; compared to BT-474/CshRNA cells (FIG. 1C, left).
Source text: Cell number is expressed as the mean±SD of three replicates. […] The results (mean±SD of three replicates) are expressed as the percentage of cell death as determined by trypan blue staining on the indicated days (left) or on day 4 (right). […] Colony number (>30 cells) is expressed as the mean±SD of three replicates (right). […] Colony number (>30 cells) is expressed as the mean±SD of three replicates.
Data set [8] has as its system BT-474/CshRNA cells. The experiment in a line: Colony formation assay. It counts as cell-based, human. The settings on record: 5 μM tamoxifen every other day for 14 days (FIG. 1E, left). The procedure: (§4) FIGS. 5A-G. Tamoxifen-resistant cells are sensitive to MUC1-C inhibition. […] Lysates were immunoblotted with the indicated antibodies. (FIG. 5B) BT-474/CshRNA cells were left untreated (diamonds) or treated with 5 μM GO-203 (squares) each day for the indicated days. […] Lysates were immunoblotted with the indicated antibodies. (FIG. 5E) MCF-7/MUC1-C cells were left untreated (diamonds) or treated with 5 μM GO-203 (squares) each day for the indicated days. […] Soluble chromatin was precipitated with anti-ERα (left), anti-CBP (right) or a control IgG. The precipitates were analyzed for Rab31 promoter sequences.
(§5) Colony formation assays. Cells were seeded in 6-well plates for 24 h and then left untreated or treated with inhibitor. After 7-14 d, the cells were washed and stained with 0.5% crystal violet in 25% methanol. Colonies >30 cells were counted in triplicate wells.

Data set [9] concerns BT-474/MUC1shRNA cells. The experiment in a line: Colony formation assay. It counts as cell-based, human. The settings on record: 5 μM tamoxifen every other day for 14 days (FIG. 1E, right). The procedure: as §5
Data set [10] relates to MCF-7/vector cells. As to the kind of experiment: Colony formation assay. The settings on record: 5 μM tamoxifen every other day for 7 days (FIG. 2E, left). It counts as cell-based, human.
Source text: (FIG. 2A) Lysates from wild-type (WT) MCF-7 cells, MCF-7/vector and MCF-7/MUC1-C cells were immunoblotted with the indicated antibodies. (FIG. 2B) Control MCF-7/vector (diamonds) and MCF-7/MUC1-C (triangles) cells were left untreated. […] Cell number is expressed as the mean±SD of three replicates. […] The results (mean±SD of three replicates) are expressed as the percentage of cell death as determined by trypan blue staining on the indicated days (left) or on day 4 (right). (FIG. 2D) MCF-7/vector and MCF-7/MUC1-C cells were seeded at 500 cells/well (6-well plate), grown for 7 days and then stained with crystal violet (left). Colony number (>30 cells) is expressed as the mean±SD of three replicates (right). […] Colony number (>30 cells) is expressed as the mean±SD of three replicates. Colony formation assays. Cells were seeded in 6-well plates for 24 h and then left untreated or treated with inhibitor. After 7-14 d, the cells were washed and stained with 0.5% crystal violet in 25% methanol. Colonies >30 cells were counted in triplicate wells.
Data set [11] relates to MCF-7/MUC1-C cells. The experiment in a line: Colony formation assay. It counts as cell-based, human. The settings on record: 5 μM tamoxifen every other day for 7 days (FIG. 2E, right). On the procedure:
as §1, §4, §5

Non-standard residues stand in square brackets, D forms with d. Residues, ends and D or L forms follow the SMILES beside them.

On to 4-hydroxytamoxifen [OHTAM], for which the “loss of viability (percentage of cell death)” value in the data set with MCF-7/MUC1-C cells [1] (10 nM OHTAM on days 0 and 2, day 4, compared to MCF-7/vector cells (FIG. 2C, right)) was “less sensitive”.

Consider `N=C(N)NCCC[C@@H](N)C(=O)N[C@H](CCCNC(=N)N)C(=O)N[C@H](CCCNC(=N)N)C(=O)N[C@H](CCCNC(=N)N)C(=O)N[C@H](CCCNC(=N)N)C(=O)N[C@H](CCCNC(=N)N)C(=O)N[C@H](CCCNC(=N)N)C(=O)N[C@H](CCCNC(=N)N)C(=O)N[C@H](CCCNC(=N)N)C(=O)N[C@H](CS)C(=O)N[C@H](CCC(N)=O)C(=O)N[C@H](CS)C(=O)N[C@H](CCCNC(=N)N)C(=O)N[C@H](CCCNC(=N)N)C(=O)N[C@H](CCCCN)C(=O)N[C@H](CC(N)=O)C(=O)O` [GO-203, [R]9-CQCRRKN] (H-[dR][dR][dR][dR][dR][dR][dR][dR][dR][dC][dQ][dC][dR][dR][dK][dN]-OH), for which, in the data set with MUC1-negative 293T cells, the “survival (percentage of cell death)” value is given as “little if any effect”.

For `CC/C(=C(\c1ccccc1)c1ccc(OCCN(C)C)cc1)c1ccccc1` [tamoxifen], the “growth (cell number)” value with BT-474/CshRNA cells [2] is listed as “unaffected”; in the data set on MCF-7/vector cells [4] it was “inhibited”. Also, the “proliferation (cell number)” value is recorded as “clearly inhibited” in the data set on BT-474/MUC1shRNA cells [3] and “little effect” with MCF-7/MUC1-C cells [5]. Further, the “sensitivity to tamoxifen treatment (viable cell number)” value in data set [6] is on record as “regained sensitivity”. Also, the “loss of viability (percentage of cell death)” value is listed as “marked loss of viability” with BT-474/MUC1shRNA cells [7]; “less sensitive” with MCF-7/MUC1-C cells [1] (5 μM tamoxifen on days 0, 2 and 4, compared to MCF-7/vector cells (FIG. 2C, left)). Besides, in the data set with BT-474/CshRNA cells [8], the “ability to form colonies” value is recorded as “little if any effect”. Moreover, the colony formation entry in the data set with BT-474/MUC1shRNA cells [9] is given as “marked decrease”. The formation of colonies result with MCF-7/vector cells [10] is listed as “effective in decreasing”. In addition, in the data set on MCF-7/MUC1-C cells [11], the clonogenic survival result is reported as “but not clonogenic survival”.
